Data published in publication PMC6769468, “Endogenous Neuropeptide Nocistatin Is a Direct Agonist of Acid-Sensing Ion Channels (ASIC1, ASIC2 and ASIC3)” (Biomolecules, 2019).

What was measured:
[1] = system: ASIC channels; conditions: ref [14],[18],[19]; cited from earlier work
From the text: All previously known activators of ASIC channels, both exogenous and endogenous, cause a persistent, slowly desensitized current that was different in kinetic parameters from currents induced by pH drops. […] Both agonists show rapid kinetics of desensitization of the currents and have a high Hill coefficient of activation. The identical efficiency with which the toxin Mamb-2 inhibits the nocistatin- and proton ...

[2] = system: delayed rectifying K^+, voltage-gated Na^+, and L-type Ca^2+ currents; design: method as in PMID 29477572; conditions: ref [19]; cited from earlier work
[3] = system: ASIC3; conditions: cited from earlier work; for Effect on ASIC3: lipids, ref [21]
From the text: Acid-sensing ion channels (ASICs) are members of ligand-gated cation channels and belong to the degenerin/epithelial Na^+ channel superfamily. Four genes (ACCN1–ACCN4) express six subunits (ASIC1a, ASIC1b, ASIC2a, ASIC2b, ASIC3, and ASIC4), four of which can form functional homomeric channels (ASIC1a, ASIC1b, ASIC2a, and ASIC3). ASIC channels are widely expressed throughout the neurons of central and peripheral nervous systems, where they play a role in neurotransmission, synaptic plasticity, and learning, and in ischemia, neuronal cell death.

[4] = system: human ASIC3 channels; design: method as in 2 sources, ref [20] = [20]; PMID 29277899; doi:10.1111/bph.14134; 20. Osmakov D.I. Koshelev S.G. Andreev Y.A. Dubinnyi M.A. Kublitski V.S. Efremov R.G. Sobolevsky A.I. Kozlov S.A. Proton-independent activation of acid-sensing ion channel 3 by an alkaloid, lindoldham ||| ref [22] = [22]; PMID 28955199; doi:10.3389/fnmol.2017.00282; 22. Osmakov D.I. Koshelev S.G. Andreev Y.A. Kozlov S.A. Endogenous Isoquinoline Alkaloids Agonists of Acid-Sensing Ion Channel Type 3 Front. Mol. Neurosci. 2017 10 282 10.3389/fnmol.2017.00282 2895519; conditions: cited from earlier work; for Effect on human ASIC3: physiological pH, prevents steady-state desensitization, ref [22]
[5] = system: rat ASIC3 channels; design: method as in 2 sources, ref [20] = [20]; PMID 29277899; doi:10.1111/bph.14134; 20. Osmakov D.I. Koshelev S.G. Andreev Y.A. Dubinnyi M.A. Kublitski V.S. Efremov R.G. Sobolevsky A.I. Kozlov S.A. Proton-independent activation of acid-sensing ion channel 3 by an alkaloid, lindoldham ||| ref [22] = [22]; PMID 28955199; doi:10.3389/fnmol.2017.00282; 22. Osmakov D.I. Koshelev S.G. Andreev Y.A. Kozlov S.A. Endogenous Isoquinoline Alkaloids Agonists of Acid-Sensing Ion Channel Type 3 Front. Mol. Neurosci. 2017 10 282 10.3389/fnmol.2017.00282 2895519; conditions: cited from earlier work; for Effect on rat ASIC3: physiological pH, prevents steady-state desensitization, ref [22]
[6] = system: ASIC channels; conditions: Supplementary Figure S1 and ref [23]; cited from earlier work
From the text: The nocistatin in mammalian is expressed as a precursor protein coding three neuropeptides (nocistatin, nociceptin, and Orphanin FQ2). […] Nocistatin is well represented in different parts of the brain and spinal cord. […] Nocistatin was studied in animal models as a prospective molecule together with opi ...

[7] = system: ASIC1a; assay: Response of ASIC1a to nociceptin and orphanin; assay type: cell-based, rat; conditions: applied under the same conditions as nocistatin, pH 7.4, pH drop to 5.5; n = 4
Procedure: Oocytes expressed rASIC1a, rASIC1b, rASIC2a, and rASIC3 homomeric channels were prepared as described. Injected oocytes were kept for two–three days at 19 °C and then for up to seven days at 15 °C in ND-96 medium supplemented with gentamycin (50 μg·mL^−1) and containing (in mM): 96 NaCl, 2 KCl, 1.8 CaCl2, 1 MgCl2, and 10 HEPES titrated to pH 7.4 with NaOH. Electrophysiological recordings were performed using the GeneClamp500 amplifier (Axon Instruments, Inverurie, UK) at a holding potential of -50 mV. The data were filtered at 20 Hz and digitized at 100 Hz using the L780 AD converter (L-Card, Moscow, Russia). Microelectrodes were filled with 3 M KCl. The external bath solution was ND-96 with pH adjusted to 7.4/7.8 (10 mM HEPES) /8.5 (10 mM Tris). Nocistatin containing solutions were freshly prepared and buffered each experimental day in ND-96 bath solution (pH 7.4/7.8/8.5). Proton-activated currents through ASIC channels were elicited by application of ND-96, in which 10 mM of HEPES was substituted with 10 mM MES at pH 5.5/ 10 mM acetic acid at pH 4.5. The whole-cell recording was performed if a response to the control pH stimulus was stable in at least two replicates. […]
Figure S1. […] Currents were measured at a holding external bath pH 7.4 and were induced by a pH drop to 5.5. […]

[8] = broad range of pH, including pH > 7.4, ref [20]

Compound: Cc1nc(NC(=N)N)nc2ccccc12 [GMQ, 2-guanidine-4-methylquinazoline]
- Shape of current caused by activator [1]: slowly developing, non-desensitizing and non-selective cation current
- Modulation of K^+, Na^+ and Ca^2+ currents [2]: modulating delayed rectifying K^+, voltage-gated Na^+, and L-type Ca^2+ currents
- Action on ASIC3 ([3]; pH < 7.4, ref [18]): acting on ASIC3 at pH < 7.4 through a nonproton sensor

Compound: CCCCC/C=C\C/C=C\C/C=C\C/C=C\CCCC(=O)O [arachidonic acid]
- Effect on ASIC3 [3]: evoking a constitutive depolarizing ASIC3-mediated current

Compound: COc1cc2c(cc1O)[C@H](Cc1ccc(Oc3cc(C[C@@H]4NCCc5cc(OC)c(O)cc54)ccc3O)cc1)NCC2 [lindoldhamine]
- Action on human ASIC3 [4, 8]: agonist and positive allosteric modulator
- Action on rat ASIC3 [5, 8]: agonist and positive allosteric modulator

Compound: COc1ccc(C[C@H]2c3cc(O)c(OC)cc3CCN2C)cc1O [reticuline]
- Effect on human ASIC3 [4]: activating human and rat ASIC3 channels at physiological pH and preventing a steady-state desensitization of the channels
- Effect on rat ASIC3 [5]: activating human and rat ASIC3 channels at physiological pH and preventing a steady-state desensitization of the channels

Compound: Oc1ccc(CC2NCCc3cc(O)c(O)cc32)cc1O (stereo not drawn) [tetrahydropapaveroline (THP), tetrahydropapaveroline]
- Effect on human ASIC3 [4]: activating human and rat ASIC3 channels at physiological pH and preventing a steady-state desensitization of the channels
- Effect on rat ASIC3 [5]: activating human and rat ASIC3 channels at physiological pH and preventing a steady-state desensitization of the channels

Compound: lysophosphatidylcholine [lysophosphatidylcholine (LPC)]
- Effect on ASIC3 [3]: evoking a constitutive depolarizing ASIC3-mediated current

Compound: nociceptin: neuropeptide nociceptin (NC) [PNOC_RAT 135–151] (FGGFTGARKSARKLANQ; Nociceptin; UniProt Q62923 135-151, looked up, fragment)
- Activating effects on ASIC channels [6]: do not have activating effects on ASIC channels
- Effect on ASIC1a [7]: no effect (neither activating nor inhibitory)

Compound: orphanin: neuropeptide orphanin (Orf) [PNOC_RAT 154–170] (FSEFMRQYLVLSMQSSQ; Orphanin FQ2; UniProt Q62923 154-170, looked up, fragment)
- Activating effects on ASIC channels [6]: do not have activating effects on ASIC channels
- Effect on ASIC1a [7]: no effect (neither activating nor inhibitory)
